Test results taken from patent US20230050653A1, “ROCK INHIBITOR AND PREPARATION METHOD THEREFOR AND USE THEREOF” (WUHAN LL SCIENCE AND TECHNOLOGY DEVELOPMENT CO., LTD., priority 2019, published 2023).

Legend:
ROCK1 kinase = target: T1, ROCK1 kinase (Homo sapiens, UniProt Q13464); assay: In vitro evaluation of ROCK1 kinase selectivity (HTRF KinEASE-STK time-resolved fluorometric assay); format: biochemical
T1 construct: purchased Invitrogen
Experimental: ROCK1 activity was detected using a 96-well (Cisbio) time-resolved fluorometric assay. The assay for ROCK1 was performed in the following assay buffer: 5 mM MgCl2 (Sigma), 1 mM DTT (Sigma) and 1× kinase buffer. The kinase buffer was used for dilution. 7.5 μL of ROCK1 kinase (Invitrogen) was added to a 96-well microplate to reach a final concentration of 0.4 ng/μL, and then 0.25 μL of test compound (DMSO content: 1%) was added. The mixture was incubated at room temperature for 0.5 h. To start the reaction, the kinase buffer was also used to mix ATP (Aladdin) and the substrate STK-substrate 2-biotin. 7.5 μL of the mixed solution was added to the microplate to reach final concentrations of 3.53 μM and 1 μM. The resulting mixture was incubated for 2 h at room temperature. […] was mixed with STK antibody-Cryptate, and then an appropriate volume of the mixture was mixed with an equal volume of streptavidin-XL665. 10 μL of the resulting mixture was added to stop the reaction. After further incubation for about 1 h, the microplate was read on a Molecular Devices SpectraMax i3x multifunctional microplate reader. The kinase buffer, the STK-substrate 2-biotin, the detection buffer, the STK antibody-Cryptate, and the streptavidin-XL665 were all from HTRF KinEASE-STK kit (Cisbio, 1000 tests, 61[…]).

ROCK2 kinase = target: T2, ROCK2 kinase (Homo sapiens, UniProt O75116); assay: In vitro evaluation of ROCK2 kinase activity (HTRF KinEASE-STK time-resolved fluorometric assay); format: biochemical
T2 construct: purchased Invitrogen PV3759
Experimental: ROCK2 activity screening. ROCK2 activity was detected using a 96-well (Cisbio) time-resolved fluorometric assay. The assay for ROCK2 was performed in the following assay buffer: 5 mM MgCl2 (Sigma), 1 mM DTT (Sigma) and 1× kinase buffer. The kinase buffer was used for dilution. 7.5 μL of ROCK2 kinase (Invitrogen, PV3759) was added to a 96-well microplate to reach a final concentration of 0.4 ng/μL, and then 0.25 μL of test compound (DMSO content: 1% (volume fraction)) was added. The mixture was incubated at room temperature for 0.5 h. To start the reaction, the kinase buffer was used to mix ATP (Aladdin) and the substrate STK-substrate 2-biotin. 7.5 μL of the mixed solution was added to the microplate to reach final concentrations of 6.739 μM and 1 μM. The resulting mixture was incubated for 2 h at room temperature. 5 mL of detection buffer was mixed with STK antibody-Cryptate, and then an appropriate volume of the mixture was mixed with an equal volume of streptavidin-XL665. 10 μL of the resulting mixture was added to the microplate to stop the reaction. After further incubation for about 1 h, the microplate was read on a Molecular Devices SpectraMax i3x multifunctional microplate reader. The kinase buffer, the STK-substrate 2-biotin, the detection buffer, the STK antibody-Cryptate, and the streptavidin-XL665 were all from HTRF KinEASE-STK kit (Cisbio, 1000 tests, 61[…]).

T1 sequence (Q13464 whole entry): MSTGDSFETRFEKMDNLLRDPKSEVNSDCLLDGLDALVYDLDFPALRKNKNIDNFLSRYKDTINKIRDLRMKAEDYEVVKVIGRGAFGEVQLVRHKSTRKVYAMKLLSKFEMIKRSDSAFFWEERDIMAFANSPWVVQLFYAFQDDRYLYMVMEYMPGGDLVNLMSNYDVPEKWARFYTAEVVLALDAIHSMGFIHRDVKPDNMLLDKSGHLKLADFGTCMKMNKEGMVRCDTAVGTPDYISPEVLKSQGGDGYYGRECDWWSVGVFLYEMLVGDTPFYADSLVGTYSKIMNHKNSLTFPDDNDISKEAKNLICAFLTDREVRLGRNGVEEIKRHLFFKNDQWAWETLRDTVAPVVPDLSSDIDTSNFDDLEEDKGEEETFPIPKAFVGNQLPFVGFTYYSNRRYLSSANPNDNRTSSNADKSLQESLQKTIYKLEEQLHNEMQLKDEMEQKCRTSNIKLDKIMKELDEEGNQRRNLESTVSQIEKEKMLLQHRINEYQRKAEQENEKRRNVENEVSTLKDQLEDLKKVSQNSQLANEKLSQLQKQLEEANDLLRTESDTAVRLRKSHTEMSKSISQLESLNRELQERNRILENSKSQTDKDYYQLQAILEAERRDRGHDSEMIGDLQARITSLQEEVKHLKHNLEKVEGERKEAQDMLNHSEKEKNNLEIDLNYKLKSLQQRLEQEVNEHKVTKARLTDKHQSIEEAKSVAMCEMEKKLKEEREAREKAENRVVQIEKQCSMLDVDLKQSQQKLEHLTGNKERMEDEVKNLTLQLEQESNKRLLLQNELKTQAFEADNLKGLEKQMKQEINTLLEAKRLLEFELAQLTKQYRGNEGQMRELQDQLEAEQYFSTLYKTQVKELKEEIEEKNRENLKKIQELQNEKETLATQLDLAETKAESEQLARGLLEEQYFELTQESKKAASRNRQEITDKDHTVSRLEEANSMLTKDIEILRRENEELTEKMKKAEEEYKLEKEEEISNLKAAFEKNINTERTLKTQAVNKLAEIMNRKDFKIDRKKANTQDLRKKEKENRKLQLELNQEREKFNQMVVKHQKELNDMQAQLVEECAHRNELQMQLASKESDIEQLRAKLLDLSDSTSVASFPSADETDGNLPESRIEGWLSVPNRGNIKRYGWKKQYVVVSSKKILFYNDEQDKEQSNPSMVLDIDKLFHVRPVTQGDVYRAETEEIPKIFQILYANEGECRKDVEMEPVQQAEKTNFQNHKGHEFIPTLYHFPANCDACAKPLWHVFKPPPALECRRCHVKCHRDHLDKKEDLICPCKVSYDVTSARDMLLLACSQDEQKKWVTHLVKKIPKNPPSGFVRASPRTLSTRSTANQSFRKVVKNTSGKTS
T2 sequence (O75116 whole entry): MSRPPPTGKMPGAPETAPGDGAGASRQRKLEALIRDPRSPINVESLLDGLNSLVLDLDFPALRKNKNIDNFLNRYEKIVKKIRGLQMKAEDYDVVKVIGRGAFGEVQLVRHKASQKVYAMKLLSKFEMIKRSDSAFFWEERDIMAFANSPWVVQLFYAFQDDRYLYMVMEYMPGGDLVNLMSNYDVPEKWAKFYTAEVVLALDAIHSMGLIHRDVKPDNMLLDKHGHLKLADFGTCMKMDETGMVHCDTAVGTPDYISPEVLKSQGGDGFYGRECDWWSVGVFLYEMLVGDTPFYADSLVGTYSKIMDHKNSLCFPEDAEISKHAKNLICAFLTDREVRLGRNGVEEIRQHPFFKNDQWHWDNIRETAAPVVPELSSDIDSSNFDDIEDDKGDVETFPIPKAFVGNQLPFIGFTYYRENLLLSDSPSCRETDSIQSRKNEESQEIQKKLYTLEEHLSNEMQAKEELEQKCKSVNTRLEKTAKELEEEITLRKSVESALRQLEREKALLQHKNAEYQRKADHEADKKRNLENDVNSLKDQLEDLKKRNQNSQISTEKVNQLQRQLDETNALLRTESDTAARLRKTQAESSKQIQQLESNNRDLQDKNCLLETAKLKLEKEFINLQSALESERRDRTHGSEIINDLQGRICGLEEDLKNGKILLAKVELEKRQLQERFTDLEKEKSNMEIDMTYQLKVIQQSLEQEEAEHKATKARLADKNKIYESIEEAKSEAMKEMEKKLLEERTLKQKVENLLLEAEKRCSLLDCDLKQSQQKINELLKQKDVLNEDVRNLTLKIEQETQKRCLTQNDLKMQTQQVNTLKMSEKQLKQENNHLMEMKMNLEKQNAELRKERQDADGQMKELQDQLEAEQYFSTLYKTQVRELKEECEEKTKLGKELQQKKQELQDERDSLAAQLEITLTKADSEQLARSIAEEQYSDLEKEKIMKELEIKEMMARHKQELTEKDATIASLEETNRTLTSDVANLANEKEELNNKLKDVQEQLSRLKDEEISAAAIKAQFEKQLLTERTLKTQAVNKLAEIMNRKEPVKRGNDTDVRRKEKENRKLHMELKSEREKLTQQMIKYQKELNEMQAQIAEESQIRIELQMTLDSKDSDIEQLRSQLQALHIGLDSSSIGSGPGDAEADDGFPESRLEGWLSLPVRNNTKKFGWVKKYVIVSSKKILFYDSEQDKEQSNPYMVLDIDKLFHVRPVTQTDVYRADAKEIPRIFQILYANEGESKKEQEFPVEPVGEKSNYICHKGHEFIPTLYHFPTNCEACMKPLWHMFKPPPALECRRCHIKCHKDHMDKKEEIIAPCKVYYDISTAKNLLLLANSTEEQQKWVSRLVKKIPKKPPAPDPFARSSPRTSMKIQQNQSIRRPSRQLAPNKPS

| SMILES | IC50 (ROCK1 kinase) [nM] | IC50 (ROCK2 kinase) [nM] |
| --- | --- | --- |
| COc1cc(F)cc(CNC(=O)n2ccc3cc(-c4cn[nH]c4)ccc32)c1 [Compound T210] | 50 to 500 | 50 to 500 |
| COc1cc(F)cc(CN(C(=O)N2CCc3cc(-c4cn[nH]c4)ccc3C2)C2COC2)c1 [Compound T214] | 50 to 500 | 50 to 500 |
| COc1cc(F)cc(CN(C(=O)N2CCc3cc(-c4cn[nH]c4)ccc3C2)C2CCOCC2)c1 [Compound T216] | 50 to 500 | 50 to 500 |
| COc1cc(F)cc(C(C)NC(=O)N2CCc3cc(-c4cn[nH]c4)c(F)cc32)c1 (stereo not shown) [Compound T341, 6-fluoro-N-(1-(3-fluoro-5-methoxyphenyl)ethyl)-5-(1H-pyrazol-4-yl)indoline-1-carboxamide] | ≤ 50 | ≤ 50 |
| CN(C)C[C@@H](NC(=O)N1CCc2cc(-c3c[nH]nc3F)c(F)cc21)c1cc(F)cc(F)c1 [Compound T366-S, (S)-N-(1-(3,5-difluorophenyl)-2-(dimethylamino)ethyl)-6-fluoro-5-(3-fluoro-1H-pyrazol-4-yl)indoline-1-carboxamide] | ≤ 50 | ≤ 50 |
| COc1cc(F)cc([C@@H](CO)NC(=O)c2cnc3cc(-c4cn[nH]c4)ccn23)c1 [Compound T352, (S)-N-(1-(3-fluoro-5-methoxyphenyl)-2-hydroxyethyl)-7-(1H-pyrazol-4-yl)imidazo(1,2-a)pyridine-3-carboxamide] | ≤ 50 | ≤ 50 |
| COc1cc(CNC(=O)N2CCc3cc(-c4cn[nH]c4)ccc32)ccn1 [Compound T227] | ≤ 50 | ≤ 50 |
| COc1cc(F)cc(CNC(=O)N2CCc3ccc(-c4cn[nH]c4)cc3C2)c1 [Compound T208, N-(3-fluoro-5-methoxybenzyl)-7-(1H-pyrazol-4-yl)-3,4-dihydroisoquinoline-2(1H)-carboxamide] | ≤ 50 | ≤ 50 |
| COc1cc(F)cc([C@@H](CO)NC(=O)N2CCc3cc(-c4c[nH]nc4C)c(F)cc32)c1 [Compound T381, (S)-6-fluoro-N-(1-(3-fluoro-5-methoxyphenyl)-2-hydroxyethyl)-5-(3-methyl-1H-pyrazol-4-yl)indoline-1-carboxamide] | ≤ 50 | ≤ 50 |
| O=C(NCc1ccccc1)N1CCc2cc(-c3ccc4[nH]ccc4c3)ccc21 [Compound T246] | 500 to 5000 | 500 to 5000 |
| COc1cc(F)cc([C@@H](CO)NC(=O)N2CCc3cc(-c4c[nH]nc4F)c(F)cc32)c1 [Compound T374, (S)-6-fluoro-5-(3-fluoro-1H-pyrazol-4-yl)-N-(1-(3-fluoro-5-methoxyphenyl)-2-hydroxyethyl)indoline-1-carboxamide] | ≤ 50 | ≤ 50 |
| COc1cc(F)cc(CNC(=O)N2CCc3cc(-c4cn[nH]c4)c(Cl)cc32)c1 [Compound T222, 6-chloro-N-(3-fluoro-5-methoxybenzyl)-5-(1H-pyrazol-4-yl)indoline-1-carboxamide] | ≤ 50 | ≤ 50 |
| O=C(NCC1CC1)c1cccc(CNC(=O)N2CCc3cc(-c4cn[nH]c4)c(F)cc32)c1 [Compound T382, N-(3-((cyclopropylmethyl)carbamoyl)benzyl)-6-fluoro-5-(1H-pyrazol-4-yl)indoline-1-carboxamide] | ≤ 50 | ≤ 50 |
| O=C(NCc1cccc(OCC2CC2)c1)c1ncn2cc(-c3cn[nH]c3)ccc12 [Compound T376, N-(3-(cyclopropylmethoxy)benzyl)-6-(1H-pyrazol-4-yl)imidazo[1,5-a]pyridine-1-carboxamide] | 500 to 5000 | 50 to 500 |
| COc1cc(F)cc(CNC(=O)N2CCc3cc(-c4cn[nH]c4)c(F)cc32)c1 [Compound T225, 6-fluoro-N-(3-fluoro-5-methoxybenzyl)-5-(1H-pyrazol-4-yl)indoline-1-carboxamide] | ≤ 50 | ≤ 50 |
| Cn1cnc(CNC(=O)N2CCc3cc(-c4cn[nH]c4)ccc32)c1 [Compound T242] | 50 to 500 | 50 to 500 |
| COc1cc(F)cc(CNC(=O)c2cnc3cc(-c4cn[nH]c4)ccn23)c1 [Compound T233] | ≤ 50 | ≤ 50 |
| COc1cc(F)cc(CNC(=O)N2CCCc3sc(-c4cn[nH]c4)nc32)c1 [Compound T230] | 50 to 500 | 50 to 500 |

| SMILES | IC50 (ROCK1 kinase) [nM] | IC50 (ROCK2 kinase) [nM] |
| --- | --- | --- |
| CN1CC(COc2cc(F)cc(C(CO)NC(=O)N3CCc4cc(-c5cn[nH]c5)c(F)cc43)c2)C1 (stereo not shown) [Compound T343, 6-fluoro-N-(1-(3-fluoro-5-((1-methylazetidin-3-yl)methoxy)phenyl)-2-hydroxyethyl)-5-(1H-pyrazol-4-yl)indoline-1-carboxamide] | 500 to 5000 | 50 to 500 |
| O=C(NC(c1ccccc1)c1ccccc1)N1CCc2cc(-c3cn[nH]c3)ccc21 [Compound T249] | 500 to 5000 | 500 to 5000 |
| O=C(NCc1cc(F)cc(OCC2CC2)c1)N1CCc2cc(-c3c[nH]nc3F)c(F)cc21 [Compound T347, N-(3-(cyclopropylmethoxy)5-fluorobenzyl)-6-fluoro-5-(3-fluoro-1H-pyrazol-4-yl)indoline-1-carboxamide] | ≤ 50 | ≤ 50 |
| CN(C)CCC(NC(=O)N1CCc2cc(-c3cn[nH]c3)ccc21)c1ccccc1 (stereo not shown) [Compound T248] | 50 to 500 | 50 to 500 |
| COc1cc(F)cc(CNC(=O)N2CCc3cc(-c4cn[nH]c4)cc(Cl)c32)c1 [Compound T221, 7-chloro-N-(3-fluoro-5-methoxybenzyl)-5-(1H-pyrazol-4-yl)indoline-1-carboxamide] | 50 to 500 | 50 to 500 |
| COc1cc(F)cc(CNC(=O)c2ccn3cc(-c4cn[nH]c4)ccc23)c1 [Compound T237] | ≤ 50 | ≤ 50 |
| Nc1n[nH]cc1-c1cc2c(cc1F)N(C(=O)NCc1cc(F)cc(F)c1)CC2 [Compound T364, 5-(3-amino-1H-pyrazol-4-yl)-6-fluoro-N-(3,5-difluorobenzyl)indoline-1-carboxamide] | 500 to 5000 | 50 to 500 |
| COc1cc(F)cc(CNC(=O)N2CCc3c2cc(F)c(-c2cn[nH]c2)c3F)c1 [Compound T228, 4,6-difluoro-N-(3-fluoro-5-methoxybenzyl)-5-(1H-pyrazol-4-yl)indoline-1-carboxamide] | ≤ 50 | ≤ 50 |
| COc1cc(F)cc(CN(C)C(=O)N2CCc3cc(-c4cn[nH]c4)ccc32)c1 [Compound T206, N-(3-fluoro-5-methoxybenzyl)-N-methyl-5-(1H-pyrazol-4-yl)indoline-1-carboxamide] | 500 to 5000 | 50 to 500 |
| CN(C)CCN(Cc1ccccc1)C(=O)N1CCc2cc(-c3cn[nH]c3)ccc21 [Compound T244] | 50 to 500 | 50 to 500 |
| O=C(COc1cc(F)cc([C@@H](CO)NC(=O)N2CCc3cc(-c4cn[nH]c4)c(F)cc32)c1)NC1CC(F)(F)C1 [Compound T369, (S)-N-(1-(3-(2-((3,3-difluorocyclobutyl)amino)-2-oxoethoxy)-5-fluorophenyl)-2-hydroxyethyl)-6-fluoro-5-(1H-pyrazol-4-yl)indoline-1-carboxamide] | ≤ 50 | ≤ 50 |
| O=C(N[C@H](CN1CC(F)(F)C1)c1cc(F)cc(F)c1)N1CCc2cc(-c3c[nH]nc3F)c(F)cc21 [Compound T340] | 50 to 500 | ≤ 50 |
| COc1cc(F)cc(CNC(=O)N2CCCc3nc(-c4cn[nH]c4)sc32)c1 [Compound T229] | ≤ 50 | ≤ 50 |
| COc1cc(F)cc(C(CN)NC(=O)N2CCc3cc(-c4cn[nH]c4)c(F)cc32)c1 (stereo not shown) [Compound T371, N-(2-amino-1-(3-fluoro-5-methoxyphenyl)ethyl)-6-fluoro-5-(1H-pyrazol-4-yl)indoline-1-carboxamide] | ≤ 50 | ≤ 50 |
| COc1cc(F)cc(CNC(=O)c2ncc3cc(-c4cn[nH]c4)ccn23)c1 [Compound T234] | ≤ 50 | ≤ 50 |
| COc1cc(F)cc(CNC(=O)N2CCc3nc(-c4cn[nH]c4)ccc32)c1 [Compound T220, N-(3-fluoro-5-methoxybenzyl)-5-(1H-pyrazol-4-yl)-2,3-dihydro-1H-pyrrolo(3,2-b)pyridine-1-carboxamide] | 50 to 500 | 50 to 500 |
| COc1cc(F)cc(CNC(=O)N2CCc3c2ccc(-c2cn[nH]c2)c3F)c1 [Compound T372, 4-fluoro-N-(3-fluoro-5-methoxybenzyl)-5-(1H-pyrazol-4-yl)indoline-1-carboxamide] | ≤ 50 | ≤ 50 |
